Data reported in patent US20210330606A1, “GLUCOSE CONSUMPTION ACCELERATOR AND GLYCOLYSIS ACCELERATOR” (SHINKO SANGYO Co., Ltd., priority 2018, published 2021).
Where “and” joins values, the source holds several entries; their conditions need not be identical. Identical values can stand only once.

What was measured:
[1] = test system: rat-derived liver cancer cells (Ry121B, subculture line); settings: drug 1 mg/ml, control = 100
[2] = test system: Rat-derived fibroblasts (Py-3Y1-S2, subculture strain); experiment: Lactate concentration in culture solution of fibroblasts (relative value, control = 100); assay type: cell-based; settings: drug 1 mg/ml, control = 100 (FIG. 7A)
Description: (§1) First, samples of 2-amino-1-cyclohexylethanol and 2-amino-1-phenylethanol were prepared in the same manner as in Example 1. The fibroblasts and the liver cancer cells were cultured under the same conditions as in Examples 1 and 5. […] As a control, the culture was performed in the same manner except that distilled water to which the drug was not added was added to the culture solution instead of the sample.
(§2) After the addition of the drug, the culture solution was diluted so that the weight ratio of the culture solution to distilled water was 1:19, and the lactate concentration of the diluted culture solution was measured. The lactate concentration was measured using a lactate assay kit (product name: Lactate Assay Kit-WST, product of Dojindo Laboratories).

[3] = test system: rat-derived liver cancer cells (Ry121B, subculture line); experiment: Lactate concentration in culture solution of liver cancer cells (relative value, control = 100); assay type: cell-based; settings: drug 1 mg/ml, control = 100 (FIG. 7B)
Description: as §1, §2

Male mice of ICR strain = experiment: Blood glucose level of mice after oral glucose load with the drug; assay type: in vivo, mouse; settings: drug 50 mg/kg + glucose 2000 mg/kg oral
Description: As a drug, 2-amino-1-phenylethanol was used. First, glucose (KANTO CHEMICAL CO., INC.) was dissolved in water for injection so as to achieve a concentration of 200 mg/ml, thereby preparing a glucose solution. Next, the drug was dissolved in the water for injection, and then the glucose solution was added thereto so that the drug and glucose had final concentrations of 2.5 mg/ml and 100 mg/ml, respectively, thereby preparing a sample. As a control of the drug, the culture was performed in the same manner except that 100 mg/ml glucose solution to which the drug was not added was used instead of the sample.
Male mice of 6-week-old ICR strain were purchased from Japan SLC, Inc., and preliminary rearing was carried out for about 1 week to check there was no abnormality in performance status. The conditions for the preliminary rearing were as follows: 4 mice each were housed in a polycarbonate cage, room temperature was 23° C.±3° C., and illumination time was 12 hours/day. Diets (mice and rat chow, product of Nosan Corporation) and drinking water (tap water) were freely ingested.
After the preliminary rearing, the mice were fasted for about 21 hours, and then body weight and blood glucose levels were measured. The mice were divided into the total of two groups, namely, a test group and a control group to ensure that there was no variation in blood glucose levels between the groups. The number of animals in each group was eight.
After the grouping, mice of the test group and the control group were orally administered a single dose of the sample and the control, respectively, using a gastric sonde to a dose volume of 20 ml/kg. That is, the test group mice were administered the drug and glucose at doses of 50 mg/kg and 2000 mg/kg, respectively, and the control group mice were administered glucose at a dose of 2000 mg/kg. With the time of the administration being regarded as 0 minutes, the blood glucose level was measured at 30 minutes, 60 minutes, 90 minutes, and 120 minutes. The blood glucose level was measured by using an ACCU-CHEK Aviva (Roche Diagnostics K.K.), blood was collected by inserting an injection needle into the tip of the tail, and the blood glucose level was measured for the collected blood.
As to the blood glucose levels at 0 minutes, 30 minutes, 60 minutes, 90 minutes and 120 minutes, the test group and the control group were compared by t-test. The significance levels were 5% and 1%.
In addition, the area under the curves (AUCs) were calculated for the measured blood glucose levels. The AUC was calculated by calculating the area surrounded by the measurement curve and a straight line parallel to the time axis and passing through the measured value at the time of administration in the graph with the measured value on the vertical axis and the time on the horizontal axis. Then, the test group and the control group were compared by t-test for AUC in the same manner as the comparison for the blood glucose level.

[4] = test system: Rat-derived fibroblasts (Py-3Y1-S2, subculture strain); experiment: Glucose consumption of rat-derived fibroblasts (relative value, control = 100); assay type: cell-based
From the text: As drugs, 2-amino-1-cyclohexylethanol (Matrix Biochemicals), 2-aminoethanol (Tokyo Chemical Industry Co., Ltd.), 1-amino-2-propanol (Wako Pure Chemical Industries, Ltd.), 2-amino-1-phenylethanol (Tokyo Chemical Industry Co., Ltd.), 1, 3-bis[tris(hydroxymethyl)-methylamino]propane (Tokyo Chemical Industry Co., Ltd.), N-cyclohexylethanolamine (Tokyo Chemical Industry Co., Ltd.), diethanolamine (Wako Pure Chemical Industries, Ltd.), diethylamine (Wako Pure Chemical Industries, Ltd.), dipropylamine (Tokyo Chemical Industry Co., Ltd.), HEPES sodium salt (MP Biomedicals), metoprolol tartrate (Tokyo Chemical Industry Co., Ltd.), morpholine (Wako Pure Chemical Co., Ltd.), octopamine (MP Biomedicals), propylamine (Tokyo Chemical Industry Co., Ltd.), triethylamine (Wako Pure Chemical Co., Ltd.), timolol maleate (Wako Pure Chemical Industries, Ltd.) and tris(hydroxymethyl)aminomethane (Wako Pure Chemical Industries, Ltd.) were used. Each drug was dissolved in distilled water to prepare a sample.
In the culture, DMEM (Nissui Pharmaceutical Co., Ltd.) was used as a culture medium. […] As a control of the drug, the culture was performed in the same manner except that distilled water to which the drug was not added was added to the culture solution instead of the sample.
After the addition of the drug, the glucose concentration of each of the culture solutions was measured immediately after the start of the culture and after the completion of the culture. The glucose concentration was measured using a glucose assay kit (Waco). Then, the glucose concentration after the completion of the culture was divided by the glucose concentration immediately after the start of the culture (5.6 mmol per liter) to calculate the glucose consumption.
The fibroblasts were cultured. […] Streptozotocin, alloxan, and nicotinamide are drugs all known to produce symptoms of diabetes when administered to the body.
Next, samples of streptozotocin, alloxan, and nicotinamide plus 2-amino-1-phenylethanol (2-A-1-P) were prepared in the same manner. The concentration of 2-A-1-P was 1 mg/ml. The relative value of the glucose consumption was calculated in the same manner.
The fibroblasts were cultured.
The concentration of 2-A-1-P was 0.5 mg/ml. The relative value of the glucose consumption was calculated in the same manner.

NCC(O)c1ccccc1 (stereo not drawn) [2-amino-1-phenylethanol]
relative value of glucose consumption [1]: about 140
relative value of lactate concentration [2]: about 185
relative value of lactate concentration [3]: about 135
AUC Calculated value (blood glucose) (Male mice of ICR strain; individual mice, 0-120 minutes above value at administration): 173 mg/dL·h and 142 mg/dL·h (2×) and 177 mg/dL·h and 171 mg/dL·h and 132 mg/dL·h and 127 mg/dL·h and 258 mg/dL·h
blood glucose level (Male mice of ICR strain; individual mice, 0 minutes (time of administration)): 46 mg/dL and 53 mg/dL and 61 mg/dL and 70 mg/dL and 54 mg/dL and 60 mg/dL and 86 mg/dL and 59 mg/dL
blood glucose level (Male mice of ICR strain; individual mice, 30 minutes post-administration): 177 mg/dL and 194 mg/dL (2×) and 222 mg/dL and 165 mg/dL and 202 mg/dL and 219 mg/dL and 256 mg/dL
blood glucose level (Male mice of ICR strain; individual mice, 60 minutes post-administration): 151 mg/dL and 136 mg/dL (2×) and 180 mg/dL and 171 mg/dL and 141 mg/dL and 160 mg/dL and 223 mg/dL
blood glucose level (Male mice of ICR strain; individual mice, 90 minutes post-administration): 121 mg/dL and 93 mg/dL and 138 mg/dL (2×) and 117 mg/dL and 91 mg/dL and 120 mg/dL and 176 mg/dL
blood glucose level (Male mice of ICR strain; individual mice, 120 minutes post-administration): 116 mg/dL and 91 mg/dL and 112 mg/dL and 113 mg/dL and 108 mg/dL and 79 mg/dL and 111 mg/dL and 134 mg/dL
AUC Mean value ± Standard error (blood glucose) (Male mice of ICR strain; test group No. 1 to No. 8): 165 ± 15 mg·h/dL
relative value of glucose consumption ([4]; Example 2, fibroblasts, drug 0.1 mg/ml, control = 100): about 130
relative value of glucose consumption ([4]; Example 2, fibroblasts, drug 0.25 mg/ml, control = 100): about 140
relative value of glucose consumption ([4]; Example 2, fibroblasts, drug 0.5 mg/ml, control = 100): about 160
relative value of glucose consumption ([4]; Example 3, 2-A-1-P 1 mg/ml in addition to alloxan 1 mg/ml): ≥ 100
relative value of glucose consumption ([4]; Example 3, 2-A-1-P 1 mg/ml in addition to nicotinamide 1 mg/ml): ≥ 100
relative value of glucose consumption ([4]; Example 3, 2-A-1-P 1 mg/ml in addition to streptozotocin 1 mg/ml): ≥ 100
relative value of glucose consumption ([4]; Example 4, 2-A-1-P 0.5 mg/ml in addition to V2O5): about 140
relative value of glucose consumption ([4]; Example 4, 2-A-1-P 0.5 mg/ml in addition to concanavalin A 100 μg/ml): about 150
relative value of glucose consumption ([4]; Example 4, 2-A-1-P 0.5 mg/ml in addition to vanadium): about 145
relative value of glucose consumption ([4]; fibroblasts, drug 0.5 mg/ml, 12 to 24 hours, control = 100 (FIG. 1A, 2A)): significantly increased glucose consumption
relative value of glucose consumption ([4]; fibroblasts, drug 1 mg/ml, 12 to 24 hours, control = 100 (FIG. 1B, 2B)): significantly increased glucose consumption
